From ChEMBL document CHEMBL5465560, “Selectivity Literature for EUbOPEN Chemogenomic Library” (2024)

Key:
[1] = target: NT-3 growth factor receptor (Homo sapiens, UniProt Q16288); assay: Selectivity interaction (KinomeScan (DiscoverX)) EUB0000607a NTRK3; details: at 10 µM
[2] = target: T1, Cyclin-G-associated kinase (Homo sapiens) (UniProt O14976); assay: Selectivity interaction (KinomeScan (DiscoverX)) EUB0000045b GAK
T1 sequence (whole entry): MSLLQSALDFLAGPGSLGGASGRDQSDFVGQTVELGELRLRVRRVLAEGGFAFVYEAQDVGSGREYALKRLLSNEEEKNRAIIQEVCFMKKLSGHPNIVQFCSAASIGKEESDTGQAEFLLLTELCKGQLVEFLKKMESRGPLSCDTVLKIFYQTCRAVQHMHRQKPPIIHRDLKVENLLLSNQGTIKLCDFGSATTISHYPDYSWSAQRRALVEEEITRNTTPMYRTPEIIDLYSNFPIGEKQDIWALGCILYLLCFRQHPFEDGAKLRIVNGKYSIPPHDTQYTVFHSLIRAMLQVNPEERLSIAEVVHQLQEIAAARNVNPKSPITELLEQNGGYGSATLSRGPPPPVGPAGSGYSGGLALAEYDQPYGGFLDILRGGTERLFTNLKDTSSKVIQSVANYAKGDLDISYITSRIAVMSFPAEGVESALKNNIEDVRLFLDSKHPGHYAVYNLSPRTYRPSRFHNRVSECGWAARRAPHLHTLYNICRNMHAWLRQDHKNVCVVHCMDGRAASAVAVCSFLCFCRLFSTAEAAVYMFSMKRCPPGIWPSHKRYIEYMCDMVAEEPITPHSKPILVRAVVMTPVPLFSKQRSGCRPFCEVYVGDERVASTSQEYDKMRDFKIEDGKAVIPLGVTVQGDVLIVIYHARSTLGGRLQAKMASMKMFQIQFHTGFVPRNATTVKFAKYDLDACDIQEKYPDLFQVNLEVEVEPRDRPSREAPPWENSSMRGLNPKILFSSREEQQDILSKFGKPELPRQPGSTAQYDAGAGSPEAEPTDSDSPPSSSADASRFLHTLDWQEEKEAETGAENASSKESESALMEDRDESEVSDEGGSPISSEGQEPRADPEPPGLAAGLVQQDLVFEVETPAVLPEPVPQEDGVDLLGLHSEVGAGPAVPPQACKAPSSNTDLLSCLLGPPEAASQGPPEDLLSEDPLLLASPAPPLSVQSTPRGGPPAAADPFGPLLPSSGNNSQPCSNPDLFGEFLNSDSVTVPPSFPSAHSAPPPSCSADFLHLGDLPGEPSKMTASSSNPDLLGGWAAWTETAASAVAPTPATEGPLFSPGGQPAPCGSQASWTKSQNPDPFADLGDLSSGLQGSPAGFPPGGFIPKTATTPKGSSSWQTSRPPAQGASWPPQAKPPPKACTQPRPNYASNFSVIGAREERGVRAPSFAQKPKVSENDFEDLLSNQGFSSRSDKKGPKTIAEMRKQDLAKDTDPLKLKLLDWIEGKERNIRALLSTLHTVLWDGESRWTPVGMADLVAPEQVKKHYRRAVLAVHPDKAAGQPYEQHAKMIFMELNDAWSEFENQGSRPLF

[3] = target: Glycogen synthase kinase-3 alpha (Homo sapiens, UniProt P49840); assay: Selectivity interaction (Upstate Kinase Profiler service (Millipore)) EUB0000056c GSK3A; details: at 1 µM
[4] = target: Mitogen-activated protein kinase 11 (Homo sapiens) (UniProt Q15759); details: at 10 µM
[5] = target: Cyclin-dependent kinase 14 (Homo sapiens) (UniProt O94921); assay: Selectivity interaction (ActivX KiNativ screen (kinase selectivity in THP-1 cell lysates)) EUB0000639a CDK14; assay type: subcellular; details: lysate
Adenosine receptor A2a = Adenosine receptor A2a (Homo sapiens, UniProt P29274); assay: Selectivity interaction (Panel of kinases, GPCRs, ion channels and transporters (enzymatic assay)) EUB0000266bCl ADORA2A
Activated CDC42 kinase 1 = Activated CDC42 kinase 1 (Homo sapiens, UniProt Q07912); assay: Selectivity interaction (Kinase panel (Carna Biosciences)) EUB0001542aTs TNK2; details: at 1 µM
[6] = target: Poly [ADP-ribose] polymerase 1 (Homo sapiens, UniProt P09874); assay: Selectivity interaction (Enzymatic assay (Reaction Biology)) EUB0001632a PARP1
[7] = target: MAP kinase-activated protein kinase 3 (Homo sapiens) (UniProt Q16644); assay: Selectivity interaction (Kinase panel (Z-LYTE Assay)) EUB0001632a MAPKAPK3; details: at 10 µM
[8] = target: T2, Mitogen-activated protein kinase 15 (Homo sapiens) (UniProt Q8TD08); assay: Selectivity interaction (KinomeScan (DiscoverX)) EUB0000695a MAPK15; details: at 100 nM
T2 sequence (whole entry): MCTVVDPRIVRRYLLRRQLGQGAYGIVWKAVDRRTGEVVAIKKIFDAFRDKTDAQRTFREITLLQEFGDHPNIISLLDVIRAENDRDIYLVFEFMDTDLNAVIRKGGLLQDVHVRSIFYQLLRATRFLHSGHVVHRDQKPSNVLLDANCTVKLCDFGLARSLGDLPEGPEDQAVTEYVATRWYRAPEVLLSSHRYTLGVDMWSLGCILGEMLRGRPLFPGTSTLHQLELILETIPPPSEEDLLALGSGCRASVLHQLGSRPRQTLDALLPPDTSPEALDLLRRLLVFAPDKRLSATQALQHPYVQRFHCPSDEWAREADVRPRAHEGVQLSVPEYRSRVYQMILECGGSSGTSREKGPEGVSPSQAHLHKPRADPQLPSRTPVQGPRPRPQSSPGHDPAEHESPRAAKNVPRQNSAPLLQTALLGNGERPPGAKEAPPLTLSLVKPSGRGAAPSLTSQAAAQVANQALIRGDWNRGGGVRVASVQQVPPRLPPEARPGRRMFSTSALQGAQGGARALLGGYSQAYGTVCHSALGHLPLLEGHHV

Sequence of Cyclin-dependent kinase 14 (Homo sapiens) (O94921 whole entry): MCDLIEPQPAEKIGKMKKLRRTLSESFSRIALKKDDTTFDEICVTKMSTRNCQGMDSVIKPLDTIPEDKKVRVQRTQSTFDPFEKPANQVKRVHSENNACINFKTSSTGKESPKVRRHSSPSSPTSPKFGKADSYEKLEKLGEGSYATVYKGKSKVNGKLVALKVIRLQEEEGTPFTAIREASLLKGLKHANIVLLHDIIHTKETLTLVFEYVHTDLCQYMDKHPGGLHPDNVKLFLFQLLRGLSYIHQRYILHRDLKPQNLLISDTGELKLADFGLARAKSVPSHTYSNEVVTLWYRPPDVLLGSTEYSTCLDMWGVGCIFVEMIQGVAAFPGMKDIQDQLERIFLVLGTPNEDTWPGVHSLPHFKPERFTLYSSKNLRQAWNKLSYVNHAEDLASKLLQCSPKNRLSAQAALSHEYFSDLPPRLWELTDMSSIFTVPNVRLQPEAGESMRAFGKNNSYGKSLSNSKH
Sequence of MAP kinase-activated protein kinase 3 (Homo sapiens) (Q16644 whole entry, looked up): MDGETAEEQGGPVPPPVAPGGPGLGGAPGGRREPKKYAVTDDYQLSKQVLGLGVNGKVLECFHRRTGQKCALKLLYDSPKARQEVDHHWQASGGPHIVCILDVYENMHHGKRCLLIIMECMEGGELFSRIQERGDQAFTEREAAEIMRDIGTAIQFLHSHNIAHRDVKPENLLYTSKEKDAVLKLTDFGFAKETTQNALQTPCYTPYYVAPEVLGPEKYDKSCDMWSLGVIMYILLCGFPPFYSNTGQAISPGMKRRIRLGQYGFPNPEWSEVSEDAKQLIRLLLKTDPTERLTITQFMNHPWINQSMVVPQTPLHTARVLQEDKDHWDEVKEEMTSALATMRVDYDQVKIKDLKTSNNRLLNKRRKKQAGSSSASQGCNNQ
Sequence of Activated CDC42 kinase 1 (Q07912 whole entry, looked up): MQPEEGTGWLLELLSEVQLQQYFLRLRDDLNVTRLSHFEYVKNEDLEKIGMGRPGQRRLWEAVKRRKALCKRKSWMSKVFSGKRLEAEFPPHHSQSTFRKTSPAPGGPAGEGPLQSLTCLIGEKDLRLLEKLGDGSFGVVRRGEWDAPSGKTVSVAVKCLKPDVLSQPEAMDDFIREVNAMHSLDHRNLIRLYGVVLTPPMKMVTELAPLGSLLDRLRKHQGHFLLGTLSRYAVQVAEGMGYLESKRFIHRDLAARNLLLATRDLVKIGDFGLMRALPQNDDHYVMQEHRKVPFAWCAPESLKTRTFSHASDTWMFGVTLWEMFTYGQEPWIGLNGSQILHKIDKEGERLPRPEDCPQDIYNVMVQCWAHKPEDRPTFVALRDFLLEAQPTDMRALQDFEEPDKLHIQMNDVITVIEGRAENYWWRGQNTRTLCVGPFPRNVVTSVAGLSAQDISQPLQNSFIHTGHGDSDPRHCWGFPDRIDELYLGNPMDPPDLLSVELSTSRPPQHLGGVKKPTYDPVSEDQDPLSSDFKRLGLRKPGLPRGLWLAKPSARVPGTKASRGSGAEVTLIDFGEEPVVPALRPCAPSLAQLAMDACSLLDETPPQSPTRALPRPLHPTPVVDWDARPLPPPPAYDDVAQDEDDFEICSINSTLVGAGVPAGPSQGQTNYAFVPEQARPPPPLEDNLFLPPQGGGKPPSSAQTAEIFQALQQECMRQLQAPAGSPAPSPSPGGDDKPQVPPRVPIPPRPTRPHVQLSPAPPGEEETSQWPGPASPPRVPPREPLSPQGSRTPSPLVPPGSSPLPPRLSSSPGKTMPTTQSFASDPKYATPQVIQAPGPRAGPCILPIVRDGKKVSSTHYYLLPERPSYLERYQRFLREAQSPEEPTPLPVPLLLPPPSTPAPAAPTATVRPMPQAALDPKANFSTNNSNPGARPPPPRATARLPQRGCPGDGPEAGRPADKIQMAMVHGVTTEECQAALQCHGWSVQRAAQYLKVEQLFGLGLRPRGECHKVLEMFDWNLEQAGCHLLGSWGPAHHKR
Sequence of Mitogen-activated protein kinase 11 (Homo sapiens) (Q15759 whole entry): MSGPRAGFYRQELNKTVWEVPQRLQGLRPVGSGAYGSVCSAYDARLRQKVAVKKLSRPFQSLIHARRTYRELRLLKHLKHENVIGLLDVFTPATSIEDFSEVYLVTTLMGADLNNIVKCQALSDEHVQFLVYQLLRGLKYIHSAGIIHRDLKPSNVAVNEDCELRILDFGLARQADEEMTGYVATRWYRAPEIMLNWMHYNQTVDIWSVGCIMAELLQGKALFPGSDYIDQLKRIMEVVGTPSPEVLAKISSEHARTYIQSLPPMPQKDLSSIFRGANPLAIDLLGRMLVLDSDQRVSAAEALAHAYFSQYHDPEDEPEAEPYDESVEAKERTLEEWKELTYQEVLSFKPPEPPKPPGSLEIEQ
Sequence of NT-3 growth factor receptor (Q16288 32-839 limits assumed): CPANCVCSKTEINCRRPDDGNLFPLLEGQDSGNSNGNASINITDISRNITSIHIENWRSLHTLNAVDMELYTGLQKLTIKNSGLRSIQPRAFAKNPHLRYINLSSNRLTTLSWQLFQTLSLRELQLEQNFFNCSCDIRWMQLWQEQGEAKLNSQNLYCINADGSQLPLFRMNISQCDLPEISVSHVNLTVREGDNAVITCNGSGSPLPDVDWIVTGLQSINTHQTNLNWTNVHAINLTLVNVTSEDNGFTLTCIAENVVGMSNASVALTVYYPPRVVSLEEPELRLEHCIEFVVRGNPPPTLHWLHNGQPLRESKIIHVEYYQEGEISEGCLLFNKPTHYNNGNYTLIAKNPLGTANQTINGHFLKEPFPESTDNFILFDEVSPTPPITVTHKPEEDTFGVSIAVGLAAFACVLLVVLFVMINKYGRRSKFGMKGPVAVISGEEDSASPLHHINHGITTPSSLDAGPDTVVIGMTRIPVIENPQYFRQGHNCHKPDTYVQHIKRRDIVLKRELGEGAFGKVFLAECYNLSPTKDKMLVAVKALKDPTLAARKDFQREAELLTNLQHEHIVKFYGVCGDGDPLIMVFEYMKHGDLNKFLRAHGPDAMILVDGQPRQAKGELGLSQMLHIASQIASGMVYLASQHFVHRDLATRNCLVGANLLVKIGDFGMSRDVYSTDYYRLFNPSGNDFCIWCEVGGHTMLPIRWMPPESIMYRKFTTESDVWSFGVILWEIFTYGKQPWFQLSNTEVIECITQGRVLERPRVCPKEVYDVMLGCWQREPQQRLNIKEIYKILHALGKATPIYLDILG
Sequence of Glycogen synthase kinase-3 alpha (P49840 2-483 limits assumed): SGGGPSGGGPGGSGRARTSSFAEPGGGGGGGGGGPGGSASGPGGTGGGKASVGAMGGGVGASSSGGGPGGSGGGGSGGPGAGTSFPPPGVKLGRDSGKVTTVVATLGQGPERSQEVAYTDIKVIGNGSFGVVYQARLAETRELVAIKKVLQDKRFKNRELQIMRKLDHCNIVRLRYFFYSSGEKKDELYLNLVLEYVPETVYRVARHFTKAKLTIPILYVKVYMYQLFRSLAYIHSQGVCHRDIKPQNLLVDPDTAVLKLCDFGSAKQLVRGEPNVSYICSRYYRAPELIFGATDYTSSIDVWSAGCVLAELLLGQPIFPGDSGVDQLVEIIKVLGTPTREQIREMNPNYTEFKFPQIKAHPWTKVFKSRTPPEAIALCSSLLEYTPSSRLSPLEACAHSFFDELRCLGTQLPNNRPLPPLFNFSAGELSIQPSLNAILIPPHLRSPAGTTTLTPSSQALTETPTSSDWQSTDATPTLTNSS
Sequence of Poly [ADP-ribose] polymerase 1 (P09874 whole entry): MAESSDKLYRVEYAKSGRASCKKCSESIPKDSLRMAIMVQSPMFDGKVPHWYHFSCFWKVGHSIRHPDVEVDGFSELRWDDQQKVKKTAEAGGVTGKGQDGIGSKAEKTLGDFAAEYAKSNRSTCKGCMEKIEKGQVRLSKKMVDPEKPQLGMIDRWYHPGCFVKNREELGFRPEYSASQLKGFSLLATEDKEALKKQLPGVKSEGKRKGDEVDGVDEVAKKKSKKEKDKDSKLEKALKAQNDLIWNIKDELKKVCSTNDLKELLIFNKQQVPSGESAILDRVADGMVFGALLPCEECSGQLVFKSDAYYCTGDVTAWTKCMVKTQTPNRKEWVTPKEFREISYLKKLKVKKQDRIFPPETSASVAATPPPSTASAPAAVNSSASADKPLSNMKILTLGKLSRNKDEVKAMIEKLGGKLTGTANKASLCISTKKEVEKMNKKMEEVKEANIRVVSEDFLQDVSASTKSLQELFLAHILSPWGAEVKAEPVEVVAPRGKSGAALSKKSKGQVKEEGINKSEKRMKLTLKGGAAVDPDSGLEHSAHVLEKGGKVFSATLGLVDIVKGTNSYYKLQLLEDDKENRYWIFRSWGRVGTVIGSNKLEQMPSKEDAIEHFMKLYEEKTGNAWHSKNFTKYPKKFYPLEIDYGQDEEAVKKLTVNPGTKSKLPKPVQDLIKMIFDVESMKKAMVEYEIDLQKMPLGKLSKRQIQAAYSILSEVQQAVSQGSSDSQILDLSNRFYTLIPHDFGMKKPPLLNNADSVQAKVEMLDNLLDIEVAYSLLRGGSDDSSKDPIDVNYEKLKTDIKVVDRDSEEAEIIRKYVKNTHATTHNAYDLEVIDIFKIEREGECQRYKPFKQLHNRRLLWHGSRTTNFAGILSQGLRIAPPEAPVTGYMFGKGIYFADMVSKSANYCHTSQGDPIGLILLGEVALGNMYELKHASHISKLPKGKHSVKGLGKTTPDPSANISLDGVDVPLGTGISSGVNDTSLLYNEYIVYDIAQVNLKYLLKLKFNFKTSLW
Sequence of Adenosine receptor A2a (P29274 whole entry): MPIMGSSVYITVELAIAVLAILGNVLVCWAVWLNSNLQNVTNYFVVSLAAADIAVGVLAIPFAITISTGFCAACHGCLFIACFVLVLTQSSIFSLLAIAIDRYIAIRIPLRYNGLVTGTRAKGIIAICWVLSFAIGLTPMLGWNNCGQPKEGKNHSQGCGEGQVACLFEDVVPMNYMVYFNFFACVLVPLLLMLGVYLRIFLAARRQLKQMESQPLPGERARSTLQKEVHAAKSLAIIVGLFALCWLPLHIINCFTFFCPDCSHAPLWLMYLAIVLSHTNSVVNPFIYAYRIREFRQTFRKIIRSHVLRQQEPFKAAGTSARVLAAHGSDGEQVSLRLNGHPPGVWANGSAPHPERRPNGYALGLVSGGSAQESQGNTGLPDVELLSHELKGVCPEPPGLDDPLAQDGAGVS

For `CNC(=O)Nc1ccc(-c2nc(N3CC4CCC(C3)O4)c3cnn(C4CCC5(CC4)OCCO5)c3n2)cc1`, which % of control [1] is on record?
Its % of control is 93%.

For `C=CC(=O)Nc1cc(-n2c(=O)ccc3cnc4ccc(-c5ccc(NS(C)(=O)=O)cc5)cc4c32)ccc1C`, which % of control ([2]; at 1 µM) is on record?
Its % of control is 74%.

And the % of control ([2]; at 10 µM)?
Its % of control is 23%.

How did the % of inhibition [3] turn out when `Cc1ccc(-c2ccc3c(ccc4sc5c(c43)NC[C@@H](C)NC5=O)n2)cn1` was run?
Its % of inhibition is 2%.

How did the % of control [4] turn out when `Cc1cc([C@@H](C)Nc2ccccc2C(=O)O)c2nc(N3CCOCC3)cc(=O)n2c1` [AZD-6482] was run?
Its % of control is 91%.

With `CC[C@@H]1[C@H](F)C(=O)N[C@@H]1COc1nccc2cc(C(N)=O)c(OC)cc12` [ZIMLOVISERTIB] as the compound, how does the % of inhibition ([5]; at 0.01 µM) read?
Its % of inhibition is -6.2%.

What about the % of inhibition ([5]; at 0.04 µM) of the same compound?
The % of inhibition was 2.9%.

And the % of inhibition ([5]; at 0.2 µM)?
The % of inhibition was -6.5%.

And the % of inhibition ([5]; at 1 µM)?
Its % of inhibition is 12.2%.

And the % of inhibition ([5]; at 5 µM)?
Its % of inhibition is 16.4%.

Which pXC50 (Adenosine receptor A2a) does the source give for `CCn1c(-c2nc3cc(C(=O)N4CCCC(N)C4)ccc3n2C)cc2ccccc21` (stereo not given) here?
The pXC50 was less than 4.5 M.

`Cn1cc(Nc2nccc(N3CC4CCC(C3)N4C(=O)[C@@H]3CC3(F)F)n2)cn1` was tested. Which % of inhibition (Activated CDC42 kinase 1) did it give?
Its % of inhibition is 82%.

`Cn1cc(-n2cnc3c(NCc4nc5cc(Cl)c(Cl)cc5[nH]4)nc(N4CCOCC4)nc32)cn1` was tested. Which IC50 [6] did it give?
Its IC50 is greater than 10 µM.

What about the % of control [7] of the same compound?
Its % of control is 2.63%.

For `Cc1cc(F)c(C(=O)Nc2cccc(-c3nncn3C(C)C)n2)cc1-n1cnc(C2CC2)c1`, which % of control [8] is on record?
The % of control was 100%.
